Experimental data as given in ChEMBL document CHEMBL5729401, “Inhibitors of Rho associated coiled-coil containing protein kinase” (2022).

Biological target: Rho-associated protein kinase 2 (Homo sapiens, UniProt O75116)
Assay: Z-lyte assay: Compounds activities were measured by Z'-lyte kinase kit (ThermoFisher Scientific). The percent inhibition rate was calculated by normalizing the kinase activity value obtained with 1 μM compound treatment against DMSO control value. IC50s were calculated using the GraphPad Prism software with kinase activities data that were collected from 9 points serial dilution of compounds treatment.

Sequence of Rho-associated protein kinase 2 (O75116 whole entry): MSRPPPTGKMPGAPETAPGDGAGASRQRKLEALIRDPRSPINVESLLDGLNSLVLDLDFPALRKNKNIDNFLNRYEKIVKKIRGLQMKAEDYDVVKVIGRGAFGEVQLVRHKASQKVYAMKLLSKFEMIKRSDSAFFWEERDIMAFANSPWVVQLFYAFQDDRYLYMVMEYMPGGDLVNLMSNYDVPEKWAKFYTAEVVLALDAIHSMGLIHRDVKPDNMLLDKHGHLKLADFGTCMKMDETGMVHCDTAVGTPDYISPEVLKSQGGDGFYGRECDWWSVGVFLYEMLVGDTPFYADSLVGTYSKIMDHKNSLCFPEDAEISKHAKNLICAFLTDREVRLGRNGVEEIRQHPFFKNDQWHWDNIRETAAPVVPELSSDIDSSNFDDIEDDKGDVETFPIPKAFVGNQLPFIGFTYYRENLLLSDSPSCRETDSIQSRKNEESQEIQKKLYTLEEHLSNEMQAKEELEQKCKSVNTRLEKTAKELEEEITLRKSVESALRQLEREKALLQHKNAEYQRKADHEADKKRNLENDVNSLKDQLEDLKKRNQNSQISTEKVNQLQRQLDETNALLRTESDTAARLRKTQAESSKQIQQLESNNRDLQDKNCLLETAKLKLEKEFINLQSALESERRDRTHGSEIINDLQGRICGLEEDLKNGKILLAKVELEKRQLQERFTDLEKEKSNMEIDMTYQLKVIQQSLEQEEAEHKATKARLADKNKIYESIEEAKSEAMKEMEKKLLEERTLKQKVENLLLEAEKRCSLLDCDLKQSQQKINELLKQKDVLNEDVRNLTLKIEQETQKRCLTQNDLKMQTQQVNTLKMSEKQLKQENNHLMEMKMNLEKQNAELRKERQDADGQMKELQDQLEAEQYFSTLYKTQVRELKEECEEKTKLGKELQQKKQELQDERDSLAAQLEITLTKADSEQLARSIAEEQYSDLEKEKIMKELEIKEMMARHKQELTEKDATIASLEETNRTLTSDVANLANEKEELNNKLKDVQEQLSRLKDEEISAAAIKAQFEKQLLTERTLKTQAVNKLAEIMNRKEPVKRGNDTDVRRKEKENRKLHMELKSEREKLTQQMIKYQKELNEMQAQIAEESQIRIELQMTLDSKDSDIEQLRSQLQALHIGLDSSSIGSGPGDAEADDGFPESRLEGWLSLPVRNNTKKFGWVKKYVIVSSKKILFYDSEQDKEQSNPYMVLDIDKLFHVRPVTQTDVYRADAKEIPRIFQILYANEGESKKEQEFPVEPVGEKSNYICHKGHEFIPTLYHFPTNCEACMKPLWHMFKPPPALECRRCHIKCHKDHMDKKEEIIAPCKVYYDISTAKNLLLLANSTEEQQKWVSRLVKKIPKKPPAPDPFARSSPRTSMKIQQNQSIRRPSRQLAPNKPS

`CNC(C(=O)Nc1ccc(-c2cn[nH]c2)cc1)c1ccc(OC)c(F)c1` (stereo unspecified) showed an IC50 of 0.021 µM.
